In patent publication US20230381170A1, “METHOD FOR TREATING ALS/FTD THROUGH DEGRADATION OF RNA REPEAT EXPANSION” (University of Florida Research Foundation, Incorporated, priority 2020, published 2023):
“Also recorded” adds a separate entry of the source.

Key:
[1] = system: Poly(GP); assay: Poly(GP) by immunoassay in patient-derived iPSCs; type: cell-based, human; conditions: for Poly(GP) levels: iPSCs from c9ALS patients
Protocol: (§1) iPSCs were treated for 4 days in Matrigel (356234, Corning) coated plates with mTeSR™1 feeder-free medium ([…] Technologies; Catalog #85850). Cells were treated in 6-well plates on day 1 and 3 with compounds diluted in 0.1% final DMSO.
Measuring Poly(GP) Levels by Electrochemiluminescence. LCLs were seeded in T-25 flash at 400,000 cells/mL in 5 mL of growth medium. After overnight incubation, the cells were treated with compound or ASO for 4 days at 37° C. After the treatment period, the cells were pelleted, and total protein was extracted by incubating with CoIP2 Buffer (50 mM Tris-HCL, pH 7.4, 300 mM NaCl, 5 mM EDTA, 1% (v/v) Triton-X 100, 2% (w/v) sodium dodecyl sulfate, and 0.01% (v/v) protease and phosphatase inhibitors) on ice for 5 min and then sonication (3 s intervals at 35% power for ˜40 s). Detergent was then removed using Pierce™ Detergent Removal Spin Columns following manufacturer's protocol. Protein concentration was measured by Pierce™ BCA Protein Assay Kit.
Levels of poly(GP) were measured using Meso Scale Discovery MSD Gold 96-well Streptavidin SECTOR plates. Both capture and detection antibodies were generated using an anti-poly(GP) antibody kindly provided by the Target ALS Foundation. To serve as the capture antibody, the poly(GP) antibody was conjugated to biotin using EZ-Link™ Sulfo-NHS-LC-Biotin (Thermo Fisher) as per the manufacturer's protocol. To serve as the detection antibody, the poly(GP) antibody was sulfo-tagged using MSD GOLD SULFO-TAG NHS-Ester (Meso Scale Discovery) as per the manufacturer's protocol. The conjugated antibodies were desalted with 40K Zeba™ Spin Desalting Columns (Thermo Fisher Scientific), and their concentrations were determined by Pierce™ BCA Protein Assay Kit.
Briefly, the plates were incubated with 2 μg/ml of anti-poly(GP)-biotin antibody at 4° C. overnight. […] After washing with 150 μL of 1×TBST three times, 1×MSD GOLD Read Buffer was added to each well, and electrochemiluminescence was measured using a SECTOR Imager (MSD). […]

[2] = system: WT C9ORF72 protein; assay: C9ORF72 expression by Western blotting; type: cell-based, human; conditions: Western blot, relative to β-actin
Protocol: Measuring C9ORF72 Expression Level by Western Blotting. Samples analyzed by Western blot were prepared as described in “Measuring poly(GP) Levels by Electrochemiluminescence”. Approximately 20 μg of total protein was separated on a 10% SDS-polyacrylamide gel, and then transferred to a PVDF membrane. The membrane was washed with 1×TBS and then blocked in 5% milk in 1×TBST for 1 h at room temperature. After washing with 1×TBST, C9orf72 antibody (GeneTex, GTX119776; 1:3000 dilution) was added in 1×TBST containing 5% milk overnight at 4° C. […] The membrane was washed with 1×TBST, and protein expression was quantified using SuperSignal West Pico Chemiluminescent Substrate (Pierce Biotechnology) per the manufacturer's protocol.
To quantify β-actin expression, the membrane was stripped using 1× Stripping Buffer (200 mM glycine, pH 2.2 and 0.1% SDS) followed by washing in 1×TBST. […] The membrane was washed with 1×TBST and incubated with 1:10,000 anti-rabbit IgG horseradish-peroxidase secondary antibody conjugate (Cell Signaling Technology) in 1×TBST containing 5% (w/v) milk for 1 h at room temperature. β-actin protein expression was quantified using SuperSignal West Pico Chemiluminescent Substrate (Pierce Biotechnology) per the manufacturer's protocol. […].

[3] = molecular target: r(G4C2)8 and hnRNP H1 complex; assay: TR-FRET hnRNP H binding assay; type: biochemical; conditions: inhibiting r(G4C2)8 and hnRNP H1 complex formation; 7 in the absence of Rnase L
Protocol: TR-FRET hnRNP H Binding Assay. TR-FRET assays were performed as previously described (12). The mixture was incubated for 15 min at room temperature and then hnRNP H1-His6 was added. After an additional 15 min incubation, streptavidin-XL665 (HTRF, Cisbio Bioassays) and anti-His6-Tb (HTRF, Cisbio Bioassays) were added to a final concentration of 40 nM and 0.44 ng/μL, respectively. After incubating for 1 h, TR-FRET was measured as previously described (12).

[4] = system: C9orf72 intron 1 harboring r(G4C2)exp; assay: C9orf72 intron 1 RT-qPCR in patient-derived iPSCs; type: cell-based, human
Protocol: as §1
Measuring Levels of C9orf72 and C9orf72 Variants by RT-qPCR. LCLs were seeded in 6-well plate (˜10^6 cells in 2 mL of growth medium) and incubated overnight at 37° C. Cells were then treated with various concentrations of compound for 24 h or with G4C2-ASO and Control-ASO (100 nM), delivered by transfection with Lipofectamine RNAiMax. RNA was extracted as described above and the expression of C9orf72 variants was determined by RT-qPCR. For iPSC and iPSC-derived motor neuron cell line, the cells were seeded into Matrigel-coated 6-well plate to ˜60% confluence before treated with 3 μM C9orf72-ASO or Control-ASO and various concentrations of compound for 1 to 2 weeks. For compound treatment well, medium change was performed with fresh compound every 3-4 days. RNA was extracted as described above and the expression of C9orf72 variants was determined by RT-qPCR.

How did the “Poly(GP) levels” value [1] turn out when `Cc1c2ccncc2c(C)c2c1[nH]c1ccc(OCCOCCOCCNCCOCCOCCOc3ccc4[nH]c5c(C)c6ccncc6c(C)c5c4c3)cc12` [Compound 3] was run?
Its value is “reduced Poly(GP) levels dose-dependently”.

And the “WT C9ORF72 protein levels” value [2]?
The value was “no effect”.

And the IC50 [3]?
The IC50 was 900 ± 100 nM.

And the “C9orf72 intron 1 levels” value ([4]; patient-derived iPSCs)?
Its value is “no effect”.

With `CCOC(=O)C1=C(Nc2ccccc2)S/C(=C\c2ccc(OCCOCCOCCOCCNC(=O)CCC(=O)N(CCOCCOCCOc3ccc4[nH]c5c(C)c6ccncc6c(C)c5c4c3)CCOCCOCCOc3ccc4[nH]c5c(C)c6ccncc6c(C)c5c4c3)c(O)c2)C1=O` [Compound 7] as the compound, how does the “potency and duration of activity for reducing Poly(GP) abundance compared to parent compound 3” value [1] read?
Its value is “significant increase in potency and a prolonged period of activity; also recorded: significant (P<0.05) increase in potency and a prolonged duration of activity”.

And the “Poly(GP) levels” value [1]?
Its value is “significant reduction”.

What about the “WT C9ORF72 protein levels” value [2] of the same compound?
The value was “unchanged”.

What about the IC50 [3] of the same compound?
The IC50 was 2400 ± 100 nM.

What about the “reduction of r(G4C2)exp-containing intron 1 levels” value ([4]; 50 nM) of the same compound?
The value was 45±11%.

What about the “reduction of r(G4C2)exp-containing intron 1 levels” value ([4]; 500 nM) of the same compound?
The value was 64±10%.
